# Data published in patent publication US8415475B2, “Antibacterial quinoline derivatives” (Janssen Pharmaceutica N.V., priority 2006, dated 2013).
# Tests used:
# [1] = test system: Staphylococcus aureus (ATCC29213); assay: In-vitro anti-bacterial microtitre plate assay, IC90, S. aureus; format: cell-based; settings: 90% inhibitory concentration for bacterial growth, resazurin fluorescence; for IC90: Staphylococcus aureus, ATCC29213, 24 h, read-out: IC90 values STA 1 B29213; for IC90 values STA 1 B29213: 24 hours
# Procedure: (§1) D.3. In-Vitro Method for Testing Compounds for Anti-Bacterial Activity Against Various Non-Mycobacterial Strains The bacteria used in this study were grown overnight in flasks containing 100 ml Mueller-Hinton Broth (Becton Dickinson-cat. no. 275730) in sterile de-ionized water, with shaking, at 37° C. Stocks (0.5 ml/tube) were stored at -70° C. until use. Bacteria titrations were performed in microtiter plates to detect the TCID50, in which the TCID50 represents the dilution that gives rise to bacterial growth in 50% of inoculated cultures. In general, an inoculum level of approximately 100 TCID50 was used for susceptibility testing. Flat-bottom, sterile 96-well plastic microtiter plates were filled with 180 μl of sterile deionized water, supplemented with 0.25% BSA. Subsequently, stock solutions (7.8× final test concentration) of compounds were added in 45 μl volumes in column 2. Serial five-fold dilutions (45 μl in 180 μl) were made directly in the microtiter plates from column 2 to reach column 11. Untreated control samples with (column 1) and without (column 12) inoculum were included in each microtiter plate. Depending on the bacteria type, approximately 10 to 60 CFU per well of bacteria inoculum (100 TCID50), in a volume of 100 μl in 2.8× Mueller-Hinton broth medium, was added to the rows […]. The same volume of broth medium without inoculum was added to column 12 in row A to H. The cultures were incubated at 37° C. for 24 hours under a normal atmosphere (incubator with open air valve and continuous ventilation). At the end of incubation, one day after inoculation, the bacterial growth was quantitated fluorometrically. Therefore resazurin (0.6 mg/ml) was added in a volume of 20 μl to all wells 3 hours after inoculation, and the plates were re-incubated overnight. A change in colour from blue to pink indicated the growth of bacteria. The fluorescence was read in a computer-controlled fluorometer (Cytofluor Biosearch) at an excitation wavelength of 530 nm and an emission wavelength of 590 nm. The % growth inhibition achieved by the compounds was calculated according to standard methods.
# [2] = test system: Streptococcus pneumoniae (ATCC6305); assay: In-vitro anti-bacterial microtitre plate assay, IC90, S. pneumoniae; format: cell-based; settings: 90% inhibitory concentration for bacterial growth, resazurin fluorescence; for IC90: Streptococcus pneumoniae, ATCC6305, 24 h, read-out: IC90 values SPN 1 6305; for IC90 values SPN 1 6305: 24 hours
# Procedure: as §1
# [3] = test system: Enterococcus faecalis (ATCC29212); assay: In-vitro anti-bacterial microtitre plate assay, IC90, E. faecalis; format: cell-based; settings: 90% inhibitory concentration for bacterial growth, resazurin fluorescence; for IC90: Enterococcus faecalis, ATCC29212, 24 h, read-out: IC90 values EFA 29212
# Procedure: as §1
# [4] = test system: Streptococcus pyogens (ATCC8668); assay: In-vitro anti-bacterial microtitre plate assay, IC90, S. pyogens; format: cell-based; settings: 90% inhibitory concentration for bacterial growth, resazurin fluorescence; for IC90: Streptococcus, ATCC8668, 24 h, read-out: IC90 values SPY 8668
# Procedure: as §1
# M. Smegmatis (ATCC607) = assay: In-vitro anti-bacterial activity against strain M. smegmatis ATCC607; format: cell-based; settings: 90% inhibitory concentration for bacterial growth, Alamar Blue fluorescence; for IC90: Mycolicibacterium smegmatis, ATCC607, 48 h, read-out: IC90 values MSM 1 ATCC607; for IC90 values MSM 1 ATCC607: 48 hours
# Procedure: D.2. In-Vitro Method for Testing Compounds for Anti-Bacterial Activity Against Strain M. smegmatis ATCC607. Flat-bottom, sterile 96-well plastic microtiter plates were filled with 180 μl of sterile deionized water, supplemented with 0.25% BSA. Subsequently, stock solutions (7.8× final test concentration) of compounds were added in 45 μl volumes to a series of duplicate wells in column 2 so as to allow evaluation of their effects on bacterial growth. Serial five-fold dilutions (45 μl in 180 μl) were made directly in the microtiter plates from column 2 to 11 using a customised robot system (Zymark Corp., Hopkinton, Mass.). Pipette tips were changed after every 3 dilutions to minimize pipetting errors with high hydrophobic compounds. Untreated control samples with (column 1) and without (column 12) inoculum were included in each microtiter plate. Approximately 250 CFU per well of bacteria inoculum, in a volume of 100 μl in 2.8× Mueller-Hinton broth medium, was added to the rows […]. The same volume of broth medium without inoculum was added to column 12 in row A to H. The cultures were incubated at 37° C. for 48 hours in a humidified 5% CO2 atmosphere (incubator with open air valve and continuous ventilation). At the end of incubation, two days after inoculation, the bacterial growth was quantitated fluorometrically. Therefore Alamar Blue (10×) was added to all wells in a volume of 20 μl and plates were incubated for another 2 hours at […] The fluorescence was read in a computer-controlled fluorometer (Cytofluor, Biosearch) at an excitation wavelength of 530 nm and an emission wavelength of 590 nm (gain 30).
# [5] = test system: Mycobacterium tuberculosis (strain H37RV); assay: In-vitro method for testing compounds against M. tuberculosis; format: cell-based; settings: 90% inhibitory concentration for bacterial growth, 7 days, Middlebrook broth, resazurin fluorescence; for IC90: Mycobacterium tuberculosis, H37RV, 168 h, read-out: IC90 values MTB 1 H37RV
compound,measurement,setting,value
"C=Cc1ccc2nc(OC)c(C(c3ccc(Cl)cc3)C(O)(CCN(C)C)c3ccccc3)cc2c1 (single isomer, unassigned) [Compound 1]",IC90,[1],48.7 µg/mL
same,IC90,[2],1.7 µg/mL
same,melting point,,184 °C
"C=Cc1ccc2nc(OC)c(C(c3ccc(Cl)cc3)C(O)(CCN(C)C)c3ccccc3)cc2c1 (single isomer, unassigned) [Compound 2]",IC90,[3],38.7 µg/mL
same,IC90,[4],1.22 µg/mL
same,IC90 values STA 1 B29213,[1],48.7 µg/mL
same,IC90 values SPN 1 6305,[2],1.7 µg/mL
same,IC90,M. Smegmatis (ATCC607),1.4 µg/mL
same,melting point,,187 °C
"COc1nc2ccc(CN3CCN(C)CC3)cc2cc1C(c1ccccc1)C(O)(CCN(C)C)c1cccc2ccccc12 (single isomer, unassigned) [Compound 29]",IC90,[1],9.3 µg/mL
same,IC90,[2],10.5 µg/mL
same,IC90,M. Smegmatis (ATCC607),2.6 µg/mL
"COc1nc2ccc(/C=N/O)cc2cc1C(c1ccccc1)C(O)(CCN(C)C)c1cccc2ccccc12 (single isomer, unassigned) [Compound 24]",IC90,[1],8.2 µg/mL
same,IC90 values SPN 1 6305,[2],1.6 µg/mL
same,IC90 values MSM 1 ATCC607,M. Smegmatis (ATCC607),2.3 µg/mL
same,melting point,,167 °C
"COc1nc2ccc(/C=N/O)cc2cc1C(c1ccccc1)C(O)(CCCCN(C)C)c1ccc2ccccc2c1 (single isomer, unassigned) [Compound 33]",IC90 values STA 1 B29213,[1],1.7 µg/mL
same,IC90 values SPN 1 6305,[2],1.9 µg/mL
same,IC90 values MSM 1 ATCC607,M. Smegmatis (ATCC607),1.7 µg/mL
same,melting point,,180 °C
"COc1nc2ccc(C(=O)c3cccc(Br)c3)cc2cc1C(c1ccc(Cl)cc1)C(O)(CCN(C)C)c1ccccc1 (single isomer, unassigned) [Compound 40]",melting point,,185 °C
"C/C=C/c1ccc2nc(OC)c(C(c3ccccc3)C(O)(CCN(C)C)c3cccc4ccccc34)cc2c1 (single isomer, unassigned) [Compound 12]",IC90,[3],51.7 µg/mL
same,IC90,[4],51.7 µg/mL
same,IC90,[1],51.7 µg/mL
same,IC90 values SPN 1 6305,[2],0.7 µg/mL
same,IC90 values MSM 1 ATCC607,M. Smegmatis (ATCC607),0.3 µg/mL
same,melting point,,189 °C
"C=Cc1ccc2nc(OC)c(C(c3ccccc3)C(O)(CCN(C)C)c3cccc4ccccc34)cc2c1 (single isomer, unassigned) [Compound 10]",IC90,[1],50.3 µg/mL
same,IC90 values SPN 1 6305,[2],20.0 µg/mL
same,IC90,M. Smegmatis (ATCC607),8 µg/mL
"COc1nc2ccc(C(=O)N(C)C)cc2cc1C(c1ccccc1)C(O)(CCN(C)C)c1cccc2ccccc12 (single isomer, unassigned) [Compound 28]",IC90,[5],3.5 µg/mL
same,IC90,[1],43.5 µg/mL
same,IC90,[2],10.9 µg/mL
same,IC90,M. Smegmatis (ATCC607),0.1 µg/mL
"COc1nc2ccc(CN(C)C)cc2cc1C(c1ccccc1)C(O)(CCN(C)C)c1cccc2ccccc12 (single isomer, unassigned) [Compound 22]",IC90 values STA 1 B29213,[1],9.5 µg/mL
same,IC90 values SPN 1 6305,[2],21.3 µg/mL
same,IC90 values MSM 1 ATCC607,M. Smegmatis (ATCC607),18.9 µg/mL
"CO/N=C/c1ccc2nc(OC)c(C(c3ccccc3)C(O)(CCCCN(C)C)c3ccccc3)cc2c1 (single isomer, unassigned) [Compound 4]",IC90,[1],8.1 µg/mL
same,IC90,[2],10.2 µg/mL
same,IC90,M. Smegmatis (ATCC607),1.6 µg/mL
"COc1nc2ccc(CN(C)C)cc2cc1C(c1ccccc1)C(O)(CCN(C)C)c1cccc2ccccc12 (single isomer, unassigned) [Compound 21]",IC90,[1],10.7 µg/mL
same,IC90,[2],13.4 µg/mL
same,IC90 values MSM 1 ATCC607,M. Smegmatis (ATCC607),0.7 µg/mL
"COc1nc2ccc(N)cc2cc1C(c1ccccc1)C(O)(CCN(C)C)c1cccc2ccccc12 (single isomer, unassigned) [Compound 16]",IC90 values MTB 1 H37RV,[5],31.0 µg/mL
same,IC90 values STA 1 B29213,[1],43.8 µg/mL
same,IC90 values SPN 1 6305,[2],24.6 µg/mL
same,IC90 values MSM 1 ATCC607,M. Smegmatis (ATCC607),7.8 µg/mL
"CC#Cc1ccc2nc(OC)c(C(c3ccccc3)C(O)(CCN(C)C)c3cccc4ccccc34)cc2c1 (single isomer, unassigned) [Compound 14]",IC90 values EFA 29212,[3]; 24 hours,51.47 µg/mL
same,IC90 values SPY 8668,[4]; 24 hours,40.88 µg/mL
same,IC90 values STA 1 B29213,[1],45.9 µg/mL
same,IC90 values SPN 1 6305,[2],1.5 µg/mL
same,IC90 values MSM 1 ATCC607,M. Smegmatis (ATCC607),0.3 µg/mL
same,melting point,,202 °C
"COc1nc2ccc(/C=N/O)cc2cc1C(c1ccccc1)C(O)(CCCCN(C)C)c1ccc2ccccc2c1 (single isomer, unassigned) [Compound 32]",IC90,[1],1.7 µg/mL
same,IC90 values SPN 1 6305,[2],10.9 µg/mL
same,IC90 values MSM 1 ATCC607,M. Smegmatis (ATCC607),7.7 µg/mL
"C=Cc1ccc2nc(OC)c(C(c3ccccc3)C(O)(CCCCN3CCCCC3)c3ccccc3)cc2c1 (single isomer, unassigned) [Compound 34]",IC90,[1],1.7 µg/mL
same,IC90 values SPN 1 6305,[2],2.1 µg/mL
same,IC90,M. Smegmatis (ATCC607),1.7 µg/mL
"C=Cc1ccc2nc(OC)c(C(c3ccccc3)C(O)(CCc3ccc(F)cc3)CCN(C)C)cc2c1 (single isomer, unassigned) [Compound 7]",IC90 values STA 1 B29213,[1],1.6 µg/mL
same,IC90 values SPN 1 6305,[2],1.3 µg/mL
same,IC90 values MSM 1 ATCC607,M. Smegmatis (ATCC607),1.3 µg/mL
same,melting point,,156 °C
"CC#Cc1ccc2nc(OC)c(C(c3ccccc3)C(O)(CCN(C)C)c3cccc4ccccc34)cc2c1 (single isomer, unassigned) [Compound 13]",IC90,[3],51.5 µg/mL
same,IC90,[4],51.5 µg/mL
same,IC90,[1],51.5 µg/mL
same,IC90 values SPN 1 6305,[2],0.3 µg/mL
same,IC90 values MSM 1 ATCC607,M. Smegmatis (ATCC607),0.003 µg/mL
same,melting point,,100 °C
"COc1nc2ccc(/C=N/O)cc2cc1C(c1ccccc1)C(O)(CCCCN(C)C)c1ccccc1 (single isomer, unassigned) [Compound 3]",IC90,[1],7.9 µg/mL
same,IC90,[2],49.8 µg/mL
same,IC90,M. Smegmatis (ATCC607),7.9 µg/mL
"COc1nc2ccc(CN)cc2cc1C(c1ccccc1)C(O)(CCN(C)C)c1cccc2ccccc12 (single isomer, unassigned) [Compound 20]",IC90 values STA 1 B29213,[1],35.8 µg/mL
same,IC90,[2],8 µg/mL
same,IC90 values MSM 1 ATCC607,M. Smegmatis (ATCC607),40.2 µg/mL
COc1nc2ccc(C(=O)c3cccc(Br)c3)cc2cc1C(c1ccccc1)C(O)(CCN(C)C)c1cccc2ccccc12 (stereo not drawn) [Compound 38],melting point,,118 °C
"C=Cc1ccc2nc(OC)c(C(c3ccccc3)C(O)(CCCCN3CCCCC3)c3ccccc3)cc2c1 (single isomer, unassigned) [Compound 35]",IC90 values STA 1 B29213,[1],1.7 µg/mL
same,IC90 values SPN 1 6305,[2],10.4 µg/mL
same,IC90 values MSM 1 ATCC607,M. Smegmatis (ATCC607),1.7 µg/mL
"C=Cc1ccc2nc(OC)c(C(c3ccccc3)C(O)(CCc3ccc(F)cc3)CCN(C)C)cc2c1 (single isomer, unassigned) [Compound 6]",IC90,[1],1.6 µg/mL
same,IC90,[2],1.3 µg/mL
same,IC90 values MSM 1 ATCC607,M. Smegmatis (ATCC607),0.1 µg/mL
same,melting point,,135 °C
"COc1nc2ccc(CN)cc2cc1C(c1ccccc1)C(O)(CCN(C)C)c1cccc2ccccc12 (single isomer, unassigned) [Compound 17]",IC90,[5],3.6 µg/mL
same,IC90 values STA 1 B29213,[1],8.0 µg/mL
same,IC90 values SPN 1 6305,[2],8.0 µg/mL
same,IC90 values MSM 1 ATCC607,M. Smegmatis (ATCC607),0.4 µg/mL
